Consider two compounds from patent US9597361B2, “Treating a bacterial skin infection with a whole, leech saliva extract” (priority 2012, dated 2017).

The test system of assay [1] is alloxan-induced diabetic rats. Put plainly: Antihyperglycemic activity: fasting blood glucose in alloxan-induced diabetic rats.
Experimental: Male rats of Sprague Dawley strain (SD) (from Mikro Makmur Enterprise, Kuantan, Pahang Darul Makmur, Malaysia) were grouped randomly and kept at an animal post-graduate laboratory in Kulliyyah of Pharmacy, International Islamic University Malaysia (IIUM), maintained with an air conditioning system and exhaust fans. The rats were under a 12 h/12 h dark and light cycle at room temperature (25° C.). They were acclimatized to these conditions for one week prior to the experiment and housed in polypropylene cages lined with pine wood husk changed every two days. The rats were given free access to tap water and a commercial dry pellet diet, Gold Coin. The experimental procedures were conducted according to Principles and Guide to Ethical Use of Laboratory Animals approved by Ministry of Health Malaysia (Sinniah & Hussein, 2000). […]
After 24 hours of alloxanisation, the fasting blood glucose concentration (FBG) was measured every morning to check the diabetic state of the injected rats. […]
Fasting blood glucose (FBG) at two-hour intervals was recorded during the experiment period for all the experimental animals. The percentage decrease in fasting blood glucose concentration was calculated from the following equation (Madubunyi, Onoja, & Asuzu, 2010):
Assay [2] deals with Bacillus cereus ATCC25923. Put plainly: Kirby-Bauer disc diffusion. The note with it: ATCC25923, read-out: Zone of inhibition, B. cereus. A general note: In agar diffusion tests the substance spreads into inoculated agar from a disc or well.
The subject of assay [3] is Staphylococcus aureus ATCC25923. Description: Kirby-Bauer disc diffusion. The settings on record: ATCC25923, read-out: Zone of inhibition, S. aureus.
In assay [4] the test system is Pseudomonas aeruginosa ATCC27853. Put plainly: Kirby-Bauer disc diffusion. The settings on record: ATCC27853, read-out: Zone of inhibition, P. auroginosa.
The test system of the next assay is Salmonella typhi. Put plainly: Kirby-Bauer disc diffusion. It is filed as cell-based. The settings on record: Salmonella enterica, read-out: Zone of inhibition, Sal. typhi.
Assay [5] has as its system Escherichia coli ATCC35218. Description: Kirby-Bauer disc diffusion. The settings on record: ATCC35218, read-out: Zone of inhibition, E. coli.

A word on the zone of inhibition: it is the extent of the growth-free halo in a diffusion test.

On to “insulin: insulin from bovine pancreas (≧27 units/mg), suspension in distilled water”, for which the “fasting blood glucose (FBG)” value is reported as “sharp significant decrease” in assay [1] (after two hours of injection (LSE p<0.05; insulin p<0.001)) and “returned to the diabetic state” in assay [1] (insulin 10 units/kg b.w s.c., after 8 hours of treatment).

As to `O=C(O)c1cn(C2CC2)c2cc(N3CCNCC3)c(F)cc2c1=O` [Cipro, ciprofloxacin], the zone of inhibition at 5 µg/disc amounted to 28 mm in assay [2]; 24 mm in assay [3]; 24 mm in assay [4]; 35 mm in the assay with Salmonella typhi; 26 mm in assay [5].
